According to the NIST ThermoML archive (doi:10.1021/je201009c):

Experiment: xn = mol fraction of the nth substance listed
Details: for surface tension liquid-gas: Capillary rise; for viscosity / mass density: 101 kPa, Liquid; for viscosity: Falling or rolling sphere viscometry; for mass density: Vibrating tube method

CC(=O)OCc1ccccc1 [benzyl ethanoate] + OCc1ccccc1
Details | mass density [kg/m3] | surface tension liquid-gas [mN/m] | viscosity [mPa·s]
293.15 K, x1 = 0.05 | 1046.29 | – | 5.782
293.15 K, x1 = 0.1001 | 1047.03 | 39.2 | 5.319
293.15 K, x1 = 0.1502 | 1047.73 | – | 4.905
293.15 K, x1 = 0.2001 | 1048.38 | 39.2 | 4.536
293.15 K, x1 = 0.25 | 1048.99 | – | 4.214
293.15 K, x1 = 0.3 | 1049.58 | 39.1 | 3.927
293.15 K, x1 = 0.3498 | 1050.15 | – | 3.678
293.15 K, x1 = 0.4001 | 1050.71 | 39 | 3.454
293.15 K, x1 = 0.45 | 1051.24 | – | 3.252
293.15 K, x1 = 0.5 | 1051.77 | 38.7 | 3.087
293.15 K, x1 = 0.5501 | 1052.26 | – | 2.93
293.15 K, x1 = 0.6001 | 1052.74 | 38.4 | 2.795
293.15 K, x1 = 0.65 | 1053.19 | – | 2.684
293.15 K, x1 = 0.6999 | 1053.64 | 38.1 | 2.589
293.15 K, x1 = 0.7502 | 1054.03 | – | 2.505
293.15 K, x1 = 0.8 | 1054.42 | 37.8 | 2.428
293.15 K, x1 = 0.85 | 1054.77 | – | 2.376
293.15 K, x1 = 0.9 | 1055.11 | 37.5 | 2.343
293.15 K, x1 = 0.95 | 1055.46 | – | 2.326
293.15 K, x1 = 1 | 1055.81 | 37.3 | 2.324
303.15 K, x1 = 0.05 | 1038.18 | – | 4.21
303.15 K, x1 = 0.1001 | 1038.83 | 38 | 3.894
303.15 K, x1 = 0.1502 | 1039.44 | – | 3.623
303.15 K, x1 = 0.2001 | 1040.01 | 37.9 | 3.378
303.15 K, x1 = 0.25 | 1040.58 | – | 3.165
303.15 K, x1 = 0.3 | 1041.11 | 37.8 | 2.972
303.15 K, x1 = 0.3498 | 1041.61 | – | 2.806
303.15 K, x1 = 0.4001 | 1042.1 | 37.5 | 2.662
303.15 K, x1 = 0.45 | 1042.57 | – | 2.535
303.15 K, x1 = 0.5 | 1043.01 | 37.1 | 2.432
303.15 K, x1 = 0.5501 | 1043.43 | – | 2.332
303.15 K, x1 = 0.6001 | 1043.84 | 36.7 | 2.234
303.15 K, x1 = 0.65 | 1044.24 | – | 2.171
303.15 K, x1 = 0.6999 | 1044.62 | 36.3 | 2.091
303.15 K, x1 = 0.7502 | 1044.99 | – | 2.035
303.15 K, x1 = 0.8 | 1045.35 | 36 | 1.985
303.15 K, x1 = 0.85 | 1045.7 | – | 1.941
303.15 K, x1 = 0.9 | 1046.05 | 35.8 | 1.902
303.15 K, x1 = 0.95 | 1046.4 | – | 1.867
303.15 K, x1 = 1 | 1046.74 | 35.6 | 1.836
313.15 K, x1 = 0.05 | 1030.21 | – | 3.18
313.15 K, x1 = 0.1001 | 1030.76 | 37 | 3.006
313.15 K, x1 = 0.1502 | 1031.27 | – | 2.848
313.15 K, x1 = 0.2001 | 1031.72 | 36.8 | 2.687
313.15 K, x1 = 0.25 | 1032.23 | – | 2.536
313.15 K, x1 = 0.3 | 1032.67 | 36.4 | 2.396
313.15 K, x1 = 0.3498 | 1033.08 | – | 2.265
313.15 K, x1 = 0.4001 | 1033.48 | 36 | 2.154
313.15 K, x1 = 0.45 | 1033.86 | – | 2.056
313.15 K, x1 = 0.5 | 1034.24 | 35.6 | 1.966
313.15 K, x1 = 0.5501 | 1034.6 | – | 1.903
313.15 K, x1 = 0.6001 | 1034.94 | 35.2 | 1.832
313.15 K, x1 = 0.65 | 1035.27 | – | 1.774
313.15 K, x1 = 0.6999 | 1035.57 | 34.8 | 1.728
313.15 K, x1 = 0.7502 | 1035.87 | – | 1.684
313.15 K, x1 = 0.8 | 1036.18 | 34.6 | 1.646
313.15 K, x1 = 0.85 | 1036.48 | – | 1.613
313.15 K, x1 = 0.9 | 1036.79 | 34.4 | 1.572
313.15 K, x1 = 0.95 | 1037.11 | – | 1.524
313.15 K, x1 = 1 | 1037.42 | 34.3 | 1.474
323.15 K, x1 = 0.05 | 1021.94 | – | 2.45
323.15 K, x1 = 0.1001 | 1022.36 | 36 | 2.349
323.15 K, x1 = 0.1502 | 1022.75 | – | 2.232
323.15 K, x1 = 0.2001 | 1023.12 | 35.7 | 2.125
323.15 K, x1 = 0.25 | 1023.48 | – | 2.021
323.15 K, x1 = 0.3 | 1023.81 | 35.2 | 1.925
323.15 K, x1 = 0.3498 | 1024.13 | – | 1.838
323.15 K, x1 = 0.4001 | 1024.44 | 34.8 | 1.756
323.15 K, x1 = 0.45 | 1024.73 | – | 1.683
323.15 K, x1 = 0.5 | 1025.02 | 34.3 | 1.62
323.15 K, x1 = 0.5501 | 1025.28 | – | 1.561
323.15 K, x1 = 0.6001 | 1025.53 | 33.9 | 1.521
323.15 K, x1 = 0.65 | 1025.79 | – | 1.482
323.15 K, x1 = 0.6999 | 1026.04 | 33.5 | 1.444
323.15 K, x1 = 0.7502 | 1026.28 | – | 1.41
323.15 K, x1 = 0.8 | 1026.52 | 33.4 | 1.387
323.15 K, x1 = 0.85 | 1026.77 | – | 1.361
323.15 K, x1 = 0.9 | 1027.01 | 33.3 | 1.339
323.15 K, x1 = 0.95 | 1027.26 | – | 1.308
323.15 K, x1 = 1 | 1027.51 | 33.2 | 1.256
